Measured values taken from the NIST ThermoML archive (doi:10.1021/je800849s).
± gives the expanded uncertainty stated by the source.

Settings: Liquid, Closed cell (Static) method

CCC [propane]
Settings | vapor or sublimation pressure [kPa]
263.3 K | 344 ± 1
283.25 K | 639 ± 2
291.22 K | 795 ± 3
296.23 K | 906 ± 3
308.21 K | 1221 ± 4
323.19 K | 1715 ± 5
